Several values for one entry are separate records, joined by “and”; a condition that tells them apart may be missing. Equal entries are not always repeated.
How the values were obtained:
human plasma proteins = assay: Protein binding of [^14C] DHA, equilibrium dialysis, human plasma; type: in vitro ADME
Method: (§1) Human blood samples (five men and five women) were freshly obtained from subject volunteers at the Department of Clinical Trials, WRAIR. Rat samples were freshly collected from five male and five female rats. Equilibrium dialysis was performed using Teflon dialysis chambers and Diachema standard membranes as described by Li and Hümpel. The GD-4/90 Equilibrium Dialyzer (MM Developments, Ottawa) contained 20 micro-dialysis cells (2.0 ml/chamber). The molecular weight cutoff for dialysis membranes was 5000 D. Equilibrium was reached after four hours, when cells were rotated at 16 rpm and 37°C. Drugs were dissolved in plasma samples with various concentrations (0.15 – 57800 ng/ml) and all experiments were carried out for five hours.

rat plasma proteins = assay: Protein binding of [^14C] DHA, equilibrium dialysis, rat plasma; type: in vitro ADME; settings: undiluted rat plasma, 0.15 to 57800 ng/ml, 37°C, five hours
Method: as §1

[1] = Metabolic profile of [^14C] DHA (free, glucuronide and other conjugation fractions); type: in vivo, rats; settings: for drug conjugation of the dose: rats i.v. 3 mg/20 μCi/kg
Method: About 2 ml of plasma and urine, and 1 – 2 g of faeces were used. Conjugates were hydrolyzed by glucuronidase (1000 FU/ml, Sigma-Aldrich, St. Louis, MO) at pH 4.6, 38°C for 24 hours. Active enzyme was checked by phenophthaleinglucuronide at the end of incubation. Urine and faecal samples were incubated for 48 hours and fresh enzyme was added after 24 hours. Total radioactivity in free, conjugated, and the remaining aqueous fractions were measured with liquid scintillation counters. Protein precipitates were dissolved in Solvable^R (200 mg in 1 ml) and counted for radioactivity after addition of scintillation cocktail.

[2] = Mass balance and urinary/faecal elimination of [^14C] DHA; type: in vivo, rats; settings: rats i.v. 3 mg/kg
Method: Metabolic cages were washed with a solution of 2% Count-off® (Perkin-Elmer Life and Analytical Sciences, Boston, Massachusetts, USA) and the volume was measured. Duplicate portions (0.1 ml urine; 1 ml cage rinse) of each sample were radio-assayed after the addition of scintillation cocktail. The weights of individual faecal samples were obtained and the samples were subsequently homogenized in four volumes of de-ionized water. Quadruplicate portions (1.0 ml) of each homogenate were decolourized with 30% hydrogen peroxide, and digested with Solvable® tissue solubilizer. After acidification with glacial acetic acid and addition of scintillation cocktail, samples were assayed for radioactivity. The samples were kept in at -20°C for two weeks prior to analysis.

[3] = Feces, listed as [^14C] dihydroartemisinin, 3 mg/kg
[4] = Total, through 192 hours, 3 mg/kg
[5] = Total, through 192 hours, listed as [^14C] dihydroartemisinin, 3 mg/kg
[6] = Urine, listed as [^14C] dihydroartemisinin, 3 mg/kg

- maximum binding percentage (human plasma proteins; human plasma, concentration range 0.15 – 462 ng/ml): 82%
- binding percentage declined to, at higher concentrations (human plasma proteins; human plasma, higher concentrations (> 25 ng/ml)): 66%
- plasma protein binding percentage (human plasma proteins; undiluted human plasma, 0.15 to 57800 ng/ml, 37°C, five hours): 76–82%
- plasma protein binding percentage (rat plasma proteins): 76–82%
- ratio of conjugation to free ([1]; plasma, 10 minutes): 1.86
- ratio of conjugation to free ([1]; plasma, 1 hour after dosing): 4.48
- ratio of conjugation to free ([1]; plasma, 192 hours): 15.1
- ratio of conjugation to free ([1]; plasma, within five minutes after dosing): 1.07
- drug conjugation of the dose ([1]; plasma): up to 89%
- drug conjugation of the dose ([1]; urine): ≤ 95%
- Fecal excretion of total radiolabel (Feces) ([2]; 0.04–0.33 days): 1.52 ± 0.58 % of dose
- Fecal excretion of total radiolabel (Feces) ([2]; 0.33–1.0 days): 29.56 ± 11.75 % of dose
- Fecal excretion of total radiolabel (Feces) ([2]; 1–2 days): 6.14 ± 1.71 % of dose
- Fecal excretion of total radiolabel (Feces) ([2]; 2–3 days): 1.64 ± 0.78 % of dose
- Fecal excretion of total radiolabel (Feces) ([2]; 3–4 days): 0.78 ± 0.31 % of dose
- Fecal excretion of total radiolabel (Feces) ([2]; 4–5 days): 0.46 ± 0.09 % of dose
- Fecal excretion of total radiolabel (Feces) ([2]; 5–6 days): 0.15 ± 0.06 % of dose
- Fecal excretion of total radiolabel (Feces) ([2]; 6–7 days): 0.11 ± 0.05 % of dose
- Fecal excretion of total radiolabel (Feces) ([2]; 7–8 days): 0.04 ± 0.04 % of dose
- Peak height ([2]; Feces, 3 mg/kg): 292.39 μg/rat
- Peak time ([2]; Feces, 3 mg/kg): 0.67 days
- Peak height [2, 3]: 292.39 ± 150.29 μg/rat
- Peak time [2, 3]: 0.67 ± 0.09 days
- Fecal excretion of total radiolabel (Feces) [2, 4]: ~40.39 % of dose and ~40 % of dose
- Total radiolabel in Cage wash [2, 4]: ~1.88 % of dose
- Fecal excretion of total radiolabel (Feces) [2, 5]: 40.39 ± 13.22 % of dose
- Total radiolabel in Cage wash [2, 5]: 1.88 ± 2.27 % of dose
- Peak time ([2]; Urine, 3 mg/kg): 0.37 days
- Peak height [2, 6]: 234.48 ± 33.74 μg/rat
- Peak time [2, 6]: 0.37 ± 0.06 days
- lag time of elimination ([2]; faeces): 0.31 days
- Ratio of excretion (urine/feces) [2]: 1.37 ± 0.39
- faecal excretion, range among animals ([2]; through 192 hours): 27–53 % of the administered dose
- urinary excretion, range among animals ([2]; through 192 hours): 44–61 % of the administered dose
- total dose excreted within first 24 hours ([2]; urine and faeces): greater than 74.76%
- lag time of elimination ([2]; urine): < 0.02 days
Structure (SMILES): C[C@@H]1CC[C@H]2[C@@H]([14CH3])C(O)O[C@@H]3O[C@@]4(C)CC[C@@H]1[C@]32OO4 (stereo partly drawn) [[^14C] DHA, [16-^14C] DHA]

Source: article PMC2694832, “Pharmacokinetics, tissue distribution and mass balance of radiolabeled dihydroartemisinin in male rats” (Malaria Journal, 2009)
